Consider nine compounds from US10611729B2, “Farnesoid X receptor antagonists” (City of Hope, priority 2014, dated 2020).

The structures appear in SMILES notation.

Assay [1] deals with T1, FXR (Homo sapiens, UniProt Q96RI1).
T1 sequence (Q96RI1 262-486 limits assumed): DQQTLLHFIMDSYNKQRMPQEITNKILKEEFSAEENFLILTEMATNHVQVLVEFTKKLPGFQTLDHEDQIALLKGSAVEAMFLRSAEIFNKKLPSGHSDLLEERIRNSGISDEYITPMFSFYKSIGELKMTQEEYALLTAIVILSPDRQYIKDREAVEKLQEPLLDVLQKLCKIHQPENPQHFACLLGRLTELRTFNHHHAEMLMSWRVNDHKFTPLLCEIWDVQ
Description: FXR TR-FRET binding assay (DY246 fluorescent probe). The note with it: for IC50: mean ± SE; for inhibition at 0.164 µM: at 164 nM. How it is done: The FXR TR-FRET binding assay was performed as previously described^23 with modifications. […] The plate was spun down after a brief shake and incubated at room temperature for 20 min. The TR-FRET emission signals at 520 nm and 490 nm for each well was then collected using a PHERAstar plate reader (BMG LABTECH, Cary, N.C.) with an excitation wavelength of 337 nm, 100-μs delay time, and 200-μs integration time. The 520 nm/490 nm ratio from each well was then calculated. […] The % inhibition of tested chemicals at given concentration was calculated based on negative and positive controls using equation 1.
In general terms: Time-resolved FRET reads energy transfer from a long-lived donor to a nearby acceptor.

Assay [2] has as its target T1, FXR. Description: GeneBLAzer FXR cell-based antagonistic assay (in presence of 400 nM GW4064). On the set-up: the Gal4 DBD was fused to the LBD of FXR in this assay; host or cells: GeneBLAzer FXR-UAS-bla HEK 293T cells. The note with it: for inhibition at 40 µM: read-out: GB FXR Cell Anta. % Inh.; for IC50: with 400 nM GW4064, read-out: GB FXR Cell Anta. IC50. As for the experimental part: A GeneBLAzer FXR cell-based assay was used to investigate the cellular activities of the 1,3,4-trisubstituted-pyrazol-4-carboxamide analogs. The assay detects the levels of a […] reporter controlled by a promoter containing the binding site of the DNA binding domain (DBD) of the GAL4 transcription factor; the Gal4 DBD was fused to the LBD of FXR in this assay.^35
FXR transactivation assays were performed using GeneBLAzer FXR-UAS-bla HEK 293T cells (Invitrogen). Cells were maintained according to the manufacturer's instructions. […] Plates were then incubated in dark for 90 min at room temperature before measuring the fluorescent emissions at 460 nm and 535 nm (using excitation at 400 nm) with an Envision plate reader with bottom read capacity. After background signal subtraction for individual emission channels, emission signals at 460 and 535 nm from each well were used to determine the ratio of 460 nm/535 nm. […] The % activation was calculated using equation 2.
The % inhibition was calculated using equation 3.

The mark [3] stands for this setting: read-out: FXR TR-FRET Binding % Inh.

One may read the IC50 as the midpoint of a concentration-inhibition curve. For `COCCc1nn(C(C)C)cc1C(=O)Nc1ccc(C)c(S(=O)(=O)N2CCOCC2)c1` [Compound 4r], the inhibition at 40 µM at FXR [1] (at 40 μM, read-out: FXR TR-FRET Binding % Inh.) turned out to be 98.2 ± 3.8%. In addition, at FXR [1], the half-maximal inhibitory concentration (IC50) is 3420 ± 190 nM. For the same compound, at FXR [2], the “FXR antagonistic activity, SAR statement in words” value (“FXR antagonistic activity” below) is on record as “loss of potency”; the inhibition at 40 µM was determined as 62.5 ± 0.8%; the IC50 was 29600 ± 1750 nM.
Regarding `COc1cccc(Cn2cc(C(=O)Nc3ccc(C)c(S(=O)(=O)N4CCOCC4)c3)c(C(C)C)n2)c1` [Compound 4m, 3-Isopropyl-1-(3-methoxybenzyl)-N-(4-methyl-3-(morpholinosulfonyl)phenyl)-1H-pyrazole-4-carboxamide], the inhibition at 4.4 µM on FXR [1] (setting [3]) came out at 101 ± 5.6%. Also, the IC50 on FXR [1] was 199 ± 21.2 nM. For the same compound, on FXR [2], the “FXR antagonistic activity” value was “decreased the potency and affinity”; the inhibition at 40 µM stood at 99.2 ± 2.7%; the IC50 is 3110 ± 580 nM.
Turning to `Cc1ccc(-c2nn(Cc3cccc(C(F)(F)F)c3)cc2C(=O)Nc2ccc(C)c(S(=O)(=O)N3CCOCC3)c2)cc1` [Compound 4k, N-(4-methyl-3-(morpholinosulfonyl)phenyl)-3-(p-tolyl)-1-(3-(trifluoromethyl)benzyl)-1H-pyrazole-4-carboxamide], at FXR [1] (setting [3]), the inhibition at 0.164 µM is 99.2 ± 6.4%. At FXR [1], the IC50 turned out to be 18.4 ± 1.2 nM. Besides, on FXR [2], the inhibition at 40 µM came to 93.4 ± 3.9% and the half-maximal inhibitory concentration (IC50) worked out at 515 ± 25.4 nM.
The corresponding values for `Cc1ccc(-c2nn(-c3ccc(Cl)cc3Cl)cc2C(=O)Nc2ccc(C)c(S(=O)(=O)N3CCOCC3)c2)cc1` [Compound 4c, 1-(2,4-Dichlorophenyl)-N-(4-methyl-3-(morpholinosulfonyl)phenyl)-3-(p-tolyl)-1H-pyrazole-4-carboxamide] are 120 ± 7.8%, 14.1 ± 0.3 nM, 89.9 ± 1.9% and 1240 ± 120 nM.
Regarding `Cc1ccc(-c2nn(-c3cccc(Cl)c3)cc2C(=O)Nc2ccc(C)c(S(=O)(=O)N3CCOCC3)c2)cc1` [Compound 4b, 1-(3-Chlorophenyl)-N-(4-methyl-3-(morpholinosulfonyl)phenyl)-3-(p-tolyl)-1H-pyrazole-4-carboxamide], the inhibition at 0.164 µM on FXR [1] (setting [3]) amounted to 99.3 ± 1.1%. Besides, the IC50 at FXR [1] came to 10.4 ± 0.9 nM. In addition, at FXR [2], the inhibition at 40 µM was 60.6 ± 0.9% and the IC50 is 5910 ± 150 nM.
On to `Cc1ccc(-c2nn(C(C)C)cc2C(=O)Nc2ccc(C)c(S(=O)(=O)N3CCOCC3)c2)cc1` [Compound 4f, 1-Isopropyl-N-(4-methyl-3-(morpholinosulfonyl)phenyl)-3-(p-tolyl)-1H-pyrazole-4-carboxamide], for which the inhibition at 4.4 µM at FXR [1] (setting [3]) was found to be 131 ± 3.8%. The compound further came in with an IC50 on FXR [1] of 49.1 ± 9.9 nM. At FXR [2], the “FXR antagonistic activity” value is “retention of the antagonistic activity”; the inhibition at 40 µM was 99.1 ± 4.4%; the 50% inhibitory concentration (IC50) worked out at 1690 ± 180 nM.
For `Cc1ccc(-c2nn(CC3CC3)cc2C(=O)Nc2ccc(C)c(S(=O)(=O)N3CCOCC3)c2)cc1` [Compound 4i, 1-(Cyclopropylmethyl)-N-(4-methyl-3-(morpholinosulfonyl)phenyl)-3-(p-tolyl)-1H-pyrazole-4-carboxamide], at FXR [1], the “fold decrease of activity for hFXR compared to Z26476908” value is listed as 2 fold and the IC50 was determined as 76.9 ± 2.7 nM. Besides, the inhibition at 1.5 µM at FXR [1] (at 1.5 μM, read-out: FXR TR-FRET Binding % Inh.) was found to be 105 ± 4.9%. On FXR [2], the inhibition at 40 µM stood at 100 ± 3.2% and the IC50 was determined as 849 ± 69 nM.
For the compound `COCCc1nn(Cc2cccc(OC)c2)cc1C(=O)Nc1ccc(C)c(S(=O)(=O)N2CCOCC2)c1` [Compound 4s], the inhibition at 13.3 µM on FXR [1] (at 13.3 μM, read-out: FXR TR-FRET Binding % Inh.) worked out at 113.5 ± 0.8%. At FXR [1], this compound came in with an IC50 of 390 ± 9.4 nM. At FXR [2], the “FXR antagonistic activity” value was “loss of potency”; the inhibition at 40 µM was determined as 95.9 ± 2.4%; the IC50 was found to be 11100 ± 640 nM.
Take `COc1cccc(Cn2cc(CNc3ccc(C)c(S(=O)(=O)N4CCOCC4)c3)c(-c3cccc(OC)c3)n2)c1` [Compound 9-3, N-((1-(3-Methoxybenzyl)-3-(3-methoxyphenyl)-1H-pyrazol-4-yl)methyl)-4-methyl-3-(morpholinosulfonyl)aniline]: the inhibition at 1.48 µM on FXR [1] (at 1.48 μM, read-out: FXR TR-FRET Binding % Inh.) came to 39.8 ± 1.8%. Further, the inhibition at 40 µM on FXR [2] worked out at 3.1 ± 0.1%.
